What was measured:
Assay in all cases: relative viability vs DMSO control (72 h) (fraction); higher = more viable cells
[1] = test system: HS729
How it was run: (§1)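 Relative viability was measured with ATPLite and expressed as percent growth, averaged across up to triplicate wells. Sarcoma cell lines had been seeded in 384-well plates to reach 80–90% confluence, dosed after 24 h, and incubated 72 h at 37 °C, 5% CO2. All data were rescaled on a scale where 1 is full and 0 is none.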

[2] = test system: SW684
How it was run: as §1

[3] = test system: SK-LMS-1
How it was run: as §1

[4] = test system: A204
How it was run: as §1

[5] = test system: SYO-1
How it was run: as §1

[6] = test system: KHOS-NP
How it was run: as §1

[7] = test system: SW872
How it was run: as §1

[8] = test system: SK-ES-1
How it was run: as §1

[9] = test system: G401
How it was run: as §1

[10] = test system: VA-ES-BJ
How it was run: as §1

[11] = test system: RD
How it was run: as §1

[12] = test system: MES-SA
How it was run: as §1

CCc1nc(C(N)=O)c(Nc2ccc(N3CCC(N4CCN(C)CC4)CC3)c(OC)c2)nc1NC1CCOCC1 [Gilteritinib]
Settings	relative viability
[1], 60 pM	0.9885
[1], 0.00018 µM	0.928
[1], 0.00053 µM	0.924
[1], 0.0016 µM	0.875
[1], 0.0048 µM	0.828
[1], 0.014 µM	0.797
[1], 0.043 µM	0.74
[1], 0.13 µM	0.63
[1], 0.389 µM	0.47
[1], 1.167 µM	0.357
[1], 3.5 µM	0.322
[2], 60 pM	1.08
[2], 0.00018 µM	1.13
[2], 0.00053 µM	1.11
[2], 0.0016 µM	1.14
[2], 0.0048 µM	1.15
[2], 0.014 µM	1.13
[2], 0.043 µM	1.09
[2], 0.13 µM	0.889
[2], 0.389 µM	0.633
[2], 1.167 µM	0.506
[2], 3.5 µM	0.491
[3], 60 pM	1.03
[3], 0.00018 µM	1.01
[3], 0.00053 µM	1.01
[3], 0.0016 µM	1.03
[3], 0.0048 µM	0.985
[3], 0.014 µM	1.018
[3], 0.043 µM	0.977
[3], 0.13 µM	0.929
[3], 0.389 µM	0.765
[3], 1.167 µM	0.504
[3], 3.5 µM	0.398
[4], 60 pM	1.05
[4], 0.00018 µM	1.01
[4], 0.00053 µM	1.04
[4], 0.0016 µM	1.04
[4], 0.0048 µM	1.02
[4], 0.014 µM	1.02
[4], 0.043 µM	1.03
[4], 0.13 µM	0.943
[4], 0.389 µM	0.742
[4], 1.167 µM	0.502
[4], 3.5 µM	0.385
[5], 60 pM	0.959
[5], 0.00018 µM	0.921
[5], 0.00053 µM	0.915
[5], 0.0016 µM	0.848
[5], 0.0048 µM	0.815
[5], 0.014 µM	0.791
[5], 0.043 µM	0.734
[5], 0.13 µM	0.637
[5], 0.389 µM	0.481
[5], 1.167 µM	0.389
[5], 3.5 µM	0.369
[6], 60 pM	1.08
[6], 0.00018 µM	1.12
[6], 0.00053 µM	1.07
[6], 0.0016 µM	1.1
[6], 0.0048 µM	1.061
[6], 0.014 µM	1.06
[6], 0.043 µM	1.03
[6], 0.13 µM	1.02
[6], 0.389 µM	0.959
[6], 1.167 µM	0.83
[6], 3.5 µM	0.695
[7], 60 pM	1.03
[7], 0.00018 µM	1.01
[7], 0.00053 µM	1.01
[7], 0.0016 µM	1.01
[7], 0.0048 µM	0.98
[7], 0.014 µM	0.949
[7], 0.043 µM	0.905
[7], 0.13 µM	0.787
[7], 0.389 µM	0.493
[7], 1.167 µM	0.341
[7], 3.5 µM	0.305
[8], 60 pM	0.996
[8], 0.00018 µM	1.03
[8], 0.00053 µM	1.07
[8], 0.0016 µM	1.01
[8], 0.0048 µM	0.979
[8], 0.014 µM	0.964
[8], 0.043 µM	0.932
[8], 0.13 µM	0.697
[8], 0.389 µM	0.208
[8], 1.167 µM	0.112
[8], 3.5 µM	0.119
[9], 60 pM	1.03
[9], 0.00018 µM	0.985
[9], 0.00053 µM	0.968
[9], 0.0016 µM	0.998
[9], 0.0048 µM	0.981
[9], 0.014 µM	0.979
[9], 0.043 µM	0.971
[9], 0.13 µM	0.851
[9], 0.389 µM	0.661
[9], 1.167 µM	0.478
[9], 3.5 µM	0.457
[10], 60 pM	0.988
[10], 0.00018 µM	0.986
[10], 0.00053 µM	0.993
[10], 0.0016 µM	1.02
[10], 0.0048 µM	1
[10], 0.014 µM	0.997
[10], 0.043 µM	1.04
[10], 0.13 µM	0.937
[10], 0.389 µM	0.713
[10], 1.167 µM	0.433
[10], 3.5 µM	0.3
[11], 60 pM	1.06
[11], 0.00018 µM	1.06
[11], 0.00053 µM	1.07
[11], 0.0016 µM	1.08
[11], 0.0048 µM	1.08
[11], 0.014 µM	1.07
[11], 0.043 µM	1.01
[11], 0.13 µM	0.829
[11], 0.389 µM	0.516
[11], 1.167 µM	0.363
[11], 3.5 µM	0.32
[12], 60 pM	0.954
[12], 0.00018 µM	0.936
[12], 0.00053 µM	0.921
[12], 0.0016 µM	0.922
[12], 0.0048 µM	0.904
[12], 0.014 µM	0.947
[12], 0.043 µM	0.904
[12], 0.13 µM	0.89
[12], 0.389 µM	0.76
[12], 1.167 µM	0.51
[12], 3.5 µM	0.393

CCS(=O)(=O)N1CC(CC#N)(n2cc(-c3ncnc4[nH]ccc34)cn2)C1 [Baricitinib]
Settings	relative viability
[1], 0.00017 µM	0.937
[1], 0.00051 µM	0.97
[1], 0.00152 µM	0.999
[1], 0.00457 µM	0.996
[1], 0.01372 µM	1
[1], 0.04115 µM	0.959
[1], 0.1235 µM	0.94
[1], 0.3704 µM	0.9518
[1], 1.111 µM	0.926
[1], 3.333 µM	0.9194
[1], 10 µM	0.87
[2], 0.00017 µM	1.06
[2], 0.00051 µM	1.04
[2], 0.00152 µM	1.12
[2], 0.00457 µM	1.09
[2], 0.01372 µM	1.13
[2], 0.04115 µM	1.07
[2], 0.1235 µM	1.09
[2], 0.3704 µM	1.03
[2], 1.111 µM	1.07
[2], 3.333 µM	1.05
[2], 10 µM	0.915
[3], 0.00017 µM	1.06
[3], 0.00051 µM	1.07
[3], 0.00152 µM	1.07
[3], 0.00457 µM	1.03
[3], 0.01372 µM	1.02
[3], 0.04115 µM	1.07
[3], 0.1235 µM	1.06
[3], 0.3704 µM	1.04
[3], 1.111 µM	1.06
[3], 3.333 µM	1.01
[3], 10 µM	0.878
[4], 0.00017 µM	1.06
[4], 0.00051 µM	1.04
[4], 0.00152 µM	1.05
[4], 0.00457 µM	1.05
[4], 0.01372 µM	1.03
[4], 0.04115 µM	1.04
[4], 0.1235 µM	1.02
[4], 0.3704 µM	1.01
[4], 1.111 µM	0.971
[4], 3.333 µM	0.934
[4], 10 µM	0.83
[5], 0.00017 µM	0.994
[5], 0.00051 µM	1.01
[5], 0.00152 µM	1.01
[5], 0.00457 µM	0.994
[5], 0.01372 µM	0.999
[5], 0.04115 µM	0.993
[5], 0.1235 µM	0.988
[5], 0.3704 µM	0.985
[5], 1.111 µM	0.988
[5], 3.333 µM	0.952
[5], 10 µM	0.897
[6], 0.00017 µM	1.04
[6], 0.00051 µM	1.04
[6], 0.00152 µM	1.052
[6], 0.00457 µM	1.06
[6], 0.01372 µM	1.04
[6], 0.04115 µM	1.04
[6], 0.1235 µM	1.06
[6], 0.3704 µM	1.02
[6], 1.111 µM	1.03
[6], 3.333 µM	0.985
[6], 10 µM	0.906
[7], 0.00017 µM	1.014
[7], 0.00051 µM	1.01
[7], 0.00152 µM	1.03
[7], 0.00457 µM	1.03
[7], 0.01372 µM	1.05
[7], 0.04115 µM	1.04
[7], 0.1235 µM	1.03
[7], 0.3704 µM	1.03
[7], 1.111 µM	1.05
[7], 3.333 µM	1.01
[7], 10 µM	0.877
[8], 0.00017 µM	0.959
[8], 0.00051 µM	1.01
[8], 0.00152 µM	1.004
[8], 0.00457 µM	0.986
[8], 0.01372 µM	0.9898
[8], 0.04115 µM	0.987
[8], 0.1235 µM	0.987
[8], 0.3704 µM	0.958
[8], 1.111 µM	1.04
[8], 3.333 µM	1.05
[8], 10 µM	1.01
[9], 0.00017 µM	0.955
[9], 0.00051 µM	0.9564
[9], 0.00152 µM	0.975
[9], 0.00457 µM	0.963
[9], 0.01372 µM	0.948
[9], 0.04115 µM	0.98
[9], 0.1235 µM	0.965
[9], 0.3704 µM	0.961
[9], 1.111 µM	0.978
[9], 3.333 µM	0.959
[9], 10 µM	0.887
[10], 0.00017 µM	1.02
[10], 0.00051 µM	1.01
[10], 0.00152 µM	1.02
[10], 0.00457 µM	1.03
[10], 0.01372 µM	1.05
[10], 0.04115 µM	1.03
[10], 0.1235 µM	1.03
[10], 0.3704 µM	1.03
[10], 1.111 µM	1.04
[10], 3.333 µM	1.06
[10], 10 µM	0.996
[11], 0.00017 µM	1.02
[11], 0.00051 µM	1.02
[11], 0.00152 µM	1.03
[11], 0.00457 µM	1.03
[11], 0.01372 µM	1.027
[11], 0.04115 µM	0.991
[11], 0.1235 µM	0.999
[11], 0.3704 µM	1.03
[11], 1.111 µM	1.051
[11], 3.333 µM	1.12
[11], 10 µM	1.03
[12], 0.00017 µM	0.928
[12], 0.00051 µM	0.936
[12], 0.00152 µM	0.945
[12], 0.00457 µM	0.942
[12], 0.01372 µM	0.95
[12], 0.04115 µM	0.929
[12], 0.1235 µM	0.935
[12], 0.3704 µM	0.929
[12], 1.111 µM	0.893
[12], 3.333 µM	0.83
[12], 10 µM	0.753

Source: the supplement of paper PMC10883282
